Measured values reported in US10227373B2 (priority 2014, dated 2019).
Several values for one entry are separate records, joined by “and”; a condition that tells them apart may be missing. Identical values can stand only once. Like-named read-outs stand apart in the source and are kept apart here. Marks after values point to notes of the source that are not given here.

Experiments:
measles virus = assay: microbe, parasite or virus in culture; type: cell-based; conditions: Measles morbillivirus, Vero 76, read-out: drug concentration to reduce viral replication (EC50)
Ebola virus [1] = assay: microbe, parasite or virus in culture; conditions: Zaire ebolavirus, read-out: EC50 (IC50)
Ebola virus [2] = test system: Ebola virus
in vitro [3] = conditions: human
Vaccinia [4] = test system: Vaccinia
Dengue [5] = test system: Dengue
Ebola (Zaire) = assay: microbe, parasite or virus in culture; type: cell-based; conditions: Zaire ebolavirus, Vero
in vitro [6] = conditions: human; remark: listed apart in the source
in vitro [7] = conditions: African green monkey
Vaccinia [8] = assay: microbe, parasite or virus in culture; type: cell-based, vaccinia virus
NOV = assay: microbe, parasite or virus in culture; type: cell-based; conditions: Norovirus, HG23
Measles = assay: microbe, parasite or virus in culture; type: cell-based; conditions: Measles morbillivirus, Vero 76
HCMV = assay: microbe, parasite or virus in culture; type: cell-based, human cytomegalovirus; conditions: Human betaherpesvirus 5, HFF
Dengue [9] = assay: microbe, parasite or virus in culture; type: cell-based
HBV = assay: microbe, parasite or virus in culture; type: cell-based, hepatitis B virus
in vitro [10] = conditions: human; remark: listed apart in the source
[11] = target: S-adenosylhomocysteine hydrolase (SAHase) (Oryctolagus cuniculus, UniProt A0A5F9DS62); assay: SAHase inhibition (release of free homocysteine); type: biochemical; conditions: SAHase from rabbit erythrocytes; read-out: IC50 versus SAHase
S-adenosylhomocysteine hydrolase (SAHase), sequence (A0A5F9DS62 1-428): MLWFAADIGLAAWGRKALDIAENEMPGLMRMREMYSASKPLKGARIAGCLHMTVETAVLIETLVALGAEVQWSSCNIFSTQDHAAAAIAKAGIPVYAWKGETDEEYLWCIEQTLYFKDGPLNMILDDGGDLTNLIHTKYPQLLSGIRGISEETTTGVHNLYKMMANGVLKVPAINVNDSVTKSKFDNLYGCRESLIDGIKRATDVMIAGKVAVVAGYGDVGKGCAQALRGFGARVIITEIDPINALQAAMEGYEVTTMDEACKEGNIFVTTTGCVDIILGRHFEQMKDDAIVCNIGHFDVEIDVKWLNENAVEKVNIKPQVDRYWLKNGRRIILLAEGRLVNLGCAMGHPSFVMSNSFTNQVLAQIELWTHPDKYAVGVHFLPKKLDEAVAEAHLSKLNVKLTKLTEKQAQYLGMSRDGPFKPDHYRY

in vitro [12] = conditions: human; remark: listed apart in the source

## Nc1nccc2c1ncn2C1=C[C@H](CO)[C@@H](O)[C@H]1O [“D”-3-Deazaisoneplanocin, D-1′,6′-iso-3-deazaneplanocin]
Measles virus
  EC50: < 0.1 µg/mL
Ebola virus [1]
  EC50: < 0.32 µM
Ebola virus [2]
  CC50/EC50: >313 µM
  EC90 (IC90; concentration inhibiting viral replication by 90%): 74.1 µM
In vitro [3]
  CC50: > 100 µM

## Nc1ncc(Br)c2c1ncn2[C@@H]1C[C@H](CO)[C@@H](O)[C@H]1O [3-Bromo-3-deazaaristeromycin]
Rift Valley Fever
  SI (CC50/EC50): 5
Flu A (H3N2)
  EC50: > 290 µM
  SI (CC50/EC50): 0
MDCK cells
  CC50: > 290 µM
Flu A (H5N1)
  EC50: 1.14 µM
  SI (CC50/EC50): >260
Tacaribe
  SI (CC50/EC50): 7.9
Flu A (H1N1)
  EC50: > 290 µM
  SI (CC50/EC50): 0
Vaccinia [4]
  SI (CC50/EC50): >1.3
Dengue [5]
  SI (CC50/EC50): 2
Influenza B
  EC50: 0.84 µM
  SI (CC50/EC50): >340

## Nc1nccc2c1ncn2[C@@H]1C[C@@H](CO)[C@H](O)[C@@H]1O [carbocyclic 3-deazaadenosine, reference compound]
Ebola virus [2]
  EC90 (IC90; concentration inhibiting viral replication by 90%): > 126.5 µM and 240.3 µM

## Nc1ncnc2c1ncn2C1=C[C@@H](CO)[C@H](O)[C@@H]1O [“L”-Isoneplanocin, (1S,2R,5S)-3-(6-Amino-9H-purin-9-yl)-5-(hydroxymethyl)cyclopent-3-ene-1,2-diol]
Ebola (Zaire)
  EC50: 0.76 µM
In vitro [6]
  CC50: > 300 µM
In vitro [7]
  CC50: 11.4 µM
Vaccinia [8]
  Antiviral activity: inactive
NOV
  EC50: 11 µM
  EC90: 89 µM
Measles
  EC50: 0.72 µM
HCMV
  EC50: 3.7 µM
  EC90: 6.86 µM
Dengue [9]
  EC50: 5.7 µM
Dengue [9]; Dengue virus, Vero 76
  EC50: 6.1 µM
HBV
  Antiviral activity: inactive
In vitro [10]
  CC50: > 300 µM

## Nc1nccc2c1ncn2C1=C[C@@H](CO)[C@H](O)[C@@H]1O [“L”-3-Deazaisoneplanocin, L-1′,6′-iso-3-deazaneplanocin]
Ebola virus [1]
  EC50: < 0.32 µM
Ebola virus [2]
  CC50/EC50: >313 µM
  EC90 (IC90; concentration inhibiting viral replication by 90%): < 0.32 µM
In vitro [3]
  CC50: > 100 µM

## Nc1ncc(Br)c2c1ncn2[C@@H]1C=C(CO)[C@@H](O)[C@H]1O [3-Bromo-3-deazaneplanocin]
Rift Valley Fever
  SI (CC50/EC50): 250
Epstein Barr
  SI (CC50/EC50): <4.3
Flu A (H3N2)
  EC50: 1.55 µM
  SI (CC50/EC50): >190
Flu A (H5N1)
  EC50: 0.94 µM
  SI (CC50/EC50): >310
Tacaribe
  SI (CC50/EC50): >2000
Vero cells
  MCC (minimum concentration causing microscopically detectable alteration of normal cell morphology): >100^d
Flu A (H1N1)
  EC50: < 0.094 µM
  SI (CC50/EC50): >2345
Ebola
  CC50/EC50: 3
  EC50: 3.3 µM
Punta Toro
  SI (CC50/EC50): 140
[11]
  IC50: 0.0027 µM
Akata cells
  CC50: 0.13^b
Dengue [5]
  SI (CC50/EC50): 57
CRFK cells
  CC50: 94^b
Influenza B
  EC50: > 0.16 µM
  SI (CC50/EC50): <7
Marburg
  CC50/EC50: 1100
  EC50: 0.009 µM
Feline herpes
  SI (CC50/EC50): 470
Junin
  SI (CC50/EC50): 160
Pichinde
  SI (CC50/EC50): 24

## Nc1ncnc2c1ncn2C1=C[C@H](CO)[C@@H](O)[C@H]1O [“D”-Isoneplanocin, (1R,2S,5R)-3-(6-Amino-9H-purin-9-yl)-5-(hydroxymethyl)cyclopent-3-ene-1,2-diol]
Ebola (Zaire)
  EC50: 0.38 µM
In vitro [12]
  CC50: > 100 µM
In vitro [6]
  CC50: > 100 µM
In vitro [7]
  CC50: 1.3 µM
Vaccinia [8]; Orthopoxvirus vaccinia, HFF
  EC50: 10.1 µM
  EC90: > 300 µM
NOV
  EC50: 0.784 µM
  EC90: 8.88 µM
Measles
  EC50: < 0.38 µM
HCMV
  EC50: 0.11 µM
  EC90: > 12 µM
Dengue [9]
  EC50: 1.5 µM
Dengue [9]; Dengue virus, Vero 76
  EC50: 1.1 µM
HBV; Hepatitis B virus
  EC50: 7.2 µM
  EC90: 35 µM
